Reference: PMC3855394, “Bright Fluorescence Monitoring System Utilizing Zoanthus sp. Green Fluorescent Protein (ZsGreen) for Human G-Protein-Coupled Receptor Signaling in Microbial Yeast Cells” (PLoS ONE, 2013)

What was measured:
[1] = cited from earlier work
Description: Studies on the structure-activity relationship of neurotensin verified that positive charges at positions 8 and 9 are important but not prerequisite for its bioactivity. There is charge complementarity between NTS8–13 and its binding pocket: the positively- ...

[2] = test system: human neurotensin receptor subtype-1 (hNTSR1); assay: GPCR signaling assay using membrane-tethered peptide ligands, hNTSR1; type: cell-based; details: strain IMFD-72ZsD, pGK421-NTSR1, flow cytometry; for fold increase in fluorescence intensity compared with α-factor: after 24 h cultivation, pH-adjusted SD medium, mean of 10,000 cells, n = 3; for rank order of ZsGreen fluorescence: membrane-tethered peptides, 24 h
Description: (§1) The cultured cells were washed and suspended in distilled water. The cell suspensions were observed using a BZ-9000 fluorescence microscope (Keyence, Osaka, Japan). Green fluorescence images were acquired with a 470/40 band-pass filter for excitation and a 535/50 band-pass filter for emission. Digital image intensities of green fluorescence were carried out, from four experiments each, with the ImageJ software (freely downloadable from the ImageJ website, http://rsbweb.nih.gov/ij/) and expressed as Integrated Density (IntDen) or its percent.
(§2) Flow cytometry measurements of green fluorescence followed previous procedures. In brief, GFP was detected using a BD FACSCanto II flow cytometer equipped with a 488-nm blue laser (Becton, Dickinson and Company, Franklin Lakes, NJ, USA); the data were analyzed using BD FACSDiva software (v5.0; Becton, Dickinson and Company). The GFP fluorescence signal was collected through a 530/30 nm band-pass filter and the GFP-A mean of 10,000 cells was defined as ‘green fluorescence intensity’.
GPCR signaling assays using membrane-tethered peptide ligands basically followed a previous procedure with some modifications. In brief, to assay signal activation from human GPCRs, yeast strains harboring the pGK421-based GPCR expression plasmids and pGK426-based peptide display plasmids were grown in SD medium (supplemented as needed) at 30 °C overnight, then the cells then were inoculated into 5 mL of the respective fresh SDM71 medium to give an initial OD600 = 0.1. The cells were incubated at 30 °C on a rotary shaker at 150 rpm, then the yeast cells were observed using a fluorescence microscope, diluted with 1 ml of sheath fluid, and fluorescence was analyzed by flow cytometry.
Data were analyzed using KaleidaGraph4.0. Statistical significance of the differences between more than two groups was calculated by one-way ANOVA, followed by Tukey’s post test. Z’ factor, a commonly used parameter reflecting the robustness and the quality of assays, was determined as follows: Z’ factor = 1 ‒ 3(SDpositive control + SDnegative control)/ (meanpositive control ‒ meannegative control), where “SD” represents standard deviation of multiple replicates of an assay.

[3] = test system: human neurotensin receptor subtype-1 (hNTSR1); assay: GPCR signaling assay with exogenously added ligand, hNTSR1; type: cell-based; details: 4 h; for fold higher fluorescence than in the absence of agonist / fold increase in fluorescence intensity in response to agonist stimulation: pGK421-NTSR1, with vs without 10 μM NTS, 30 °C, pH 7.1 SD medium, flow cytometry, mean of 10,000 cells, n = 3
Description: as §1, §2
(§3) GPCR signaling assays with exogenously added ligands basically followed previous procedures. In brief, to assay signal activation from human GPCRs, yeast strains harboring the pGK421-based plasmids were grown in SD medium (supplemented as needed) at 30 °C overnight, then the cells then were inoculated into 5 mL of the respective fresh SD medium to give an initial OD600 = 0.03. The cells were incubated at 30 °C on a rotary shaker at 150 rpm for up to 18 h and harvested, washed, and resuspended in water to give an OD600 = 10. […] The plates were incubated at 30 °C with shaking (150 rpm) for 4 h, then the yeast cells were observed using a fluorescence microscope, diluted with 1 mL of sheath fluid, and fluorescence was analyzed by flow cytometry.

[4] = test system: human neurotensin receptor subtype-1 (hNTSR1); assay: Quantitative digital image analysis of ZsGreen fluorescence (microscopy, ImageJ), hNTSR1; type: cell-based; details: strain IMFD-72ZsD, pGK421-NTSR1; NTS at several concentrations, 4 h; 100 cells, n = 4
Description: as §1, §3

[5] = test system: human somatostatin receptor subtype-5 (hSSTR5); assay: GPCR signaling assay with exogenously added ligand, hSSTR5 (FIG1-promoter GFP reporter yeast); type: cell-based; details: 4 h; for fluorescence microscopy observation: 10 μM SST; for fold increase in fluorescence on agonist addition / fold increase in fluorescence intensity in response to agonist stimulation: pGK421-SSTR5, with vs without 10 μM SST, 30 °C, pH 7.1 SD medium, flow cytometry, mean of 10,000 cells, n = 3
Description: as §1, §2, §3

[6] = test system: human somatostatin receptor subtype-2 (hSSTR2); assay: GPCR signaling assay with exogenously added ligand, hSSTR2; type: cell-based; details: 4 h; for fold higher fluorescence on agonist addition / fold increase in fluorescence intensity on agonist stimulation: pGK421-SSTR2, with vs without 10 μM SST, 30 °C, pH 7.1 SD medium, flow cytometry, mean of 10,000 cells, n = 3
Description: as §1, §2, §3

[7] = strain IMFD-70ZsD (ZsGreen, Gpa1p)
[8] = strain IMFD-72ZsD (ZsGreen, Gi3tp)

Substance: RRPYIL [Neurotensin-(8-13), pharmacophore of neurotensin, RRPYIL (cited from literature)]
- potency and efficacy versus full-length NTS [1]: higher potency and efficacy than full-length NTS

Substance: RRPYIL [NTS8–13, NTS 8-13 -Flag–Flo42 in pGK426; membrane-tethered NTS8–13]
- fold increase in fluorescence intensity compared with α-factor [2]: greater than 35 fold
- rank order of ZsGreen fluorescence [2]: NTS8–13 > NTS > NMN > α-factor

Substance: KIPYIL [NMN, NMN–Flag–Flo42 in pGK426; membrane-tethered neuromedin N]
- fold increase in fluorescence intensity compared with α-factor [2]: > 1.5 fold
- rank order of ZsGreen fluorescence [2]: NTS8–13 > NTS > NMN > α-factor

Substance: neurotensin [NTS]
- fluorescence microscopy observation ([3]; hNTSR1-expressing IMFD-72ZsD, 10 μM NTS, 40× and 100× objective): clearly exhibited changes in green fluorescence and morphology
- fold higher fluorescence than in the absence of agonist ([3]; strain IMFD-70 (EGFP, Gpa1p)): 1.3 fold
- fold increase in fluorescence intensity in response to agonist stimulation [3, 7]: 7.9 fold
- fold higher fluorescence than in the absence of agonist ([3]; strain IMFD-72 (EGFP, Gi3tp)): 2.3 fold
- fold increase in fluorescence intensity in response to agonist stimulation [3, 8]: 45 fold
- digital intensity of green fluorescence (IntDen), concentration dependence [4]: varied in a NTS-dependent manner

Substance: somatostatin [SST]
- fluorescence microscopy observation ([5]; hSSTR5-expressing IMFD-70ZsD and IMFD-72ZsD (ZsGreen), 40× and 100× objective): exhibited changes in green fluorescence and morphology
- fluorescence microscopy observation ([5]; hSSTR5-expressing IMFD-70 and IMFD-72 (EGFP)): the fluorescence was too weak to allow observation with a fluorescence microscope
- fold increase in fluorescence on agonist addition ([5]; strain IMFD-70 (EGFP, Gpa1p)): 3.9 fold
- fold increase in fluorescence intensity in response to agonist stimulation ([5]; strain IMFD-70Zs (single ZsGreen substitution, Gpa1p)): 33 fold
- fold increase in fluorescence intensity in response to agonist stimulation ([5]; strain IMFD-70ZsD (double ZsGreen substitution, Gpa1p)): 83 fold
- fold increase in fluorescence on agonist addition ([5]; strain IMFD-72 (EGFP, Gi3tp)): 5.6 fold
- fold increase in fluorescence intensity in response to agonist stimulation ([5]; strain IMFD-72Zs (single ZsGreen substitution, Gi3tp)): 65 fold
- fold increase in fluorescence intensity in response to agonist stimulation ([5]; strain IMFD-72ZsD (double ZsGreen substitution, Gi3tp)): 104 fold
- fluorescence microscopy observation ([6]; hSSTR2-expressing IMFD-72ZsD, 10 μM SST, 40× and 100× objective): clearly exhibited changes in green fluorescence and morphology
- fold higher fluorescence on agonist addition ([6]; strain IMFD-70 (EGFP, Gpa1p)): 3.0 fold
- fold increase in fluorescence intensity on agonist stimulation [6, 7]: 36 fold
- fold higher fluorescence on agonist addition ([6]; strain IMFD-72 (EGFP, Gi3tp)): 4.6 fold
- fold increase in fluorescence intensity on agonist stimulation [6, 8]: 81 fold

Substance: KIPYIL [neuromedin N, neurotensin-like peptide, KIPYIL (cited from literature)]
- biological activity [1]: very weak biological activity
